Data on three molecules can be found in patent US8507724B2 (priority 2008, dated 2013).

The structures appear in SMILES notation.

The target of the test is T1, α1 homomeric glycine receptors (Rattus norvegicus, UniProt P07727).
T1 construct: expressed in transfected cells; host or cells: HEK 293 (transient transfection by electroporation, cDNA in pCIS2 vector)
T1 sequence (P07727 29-457): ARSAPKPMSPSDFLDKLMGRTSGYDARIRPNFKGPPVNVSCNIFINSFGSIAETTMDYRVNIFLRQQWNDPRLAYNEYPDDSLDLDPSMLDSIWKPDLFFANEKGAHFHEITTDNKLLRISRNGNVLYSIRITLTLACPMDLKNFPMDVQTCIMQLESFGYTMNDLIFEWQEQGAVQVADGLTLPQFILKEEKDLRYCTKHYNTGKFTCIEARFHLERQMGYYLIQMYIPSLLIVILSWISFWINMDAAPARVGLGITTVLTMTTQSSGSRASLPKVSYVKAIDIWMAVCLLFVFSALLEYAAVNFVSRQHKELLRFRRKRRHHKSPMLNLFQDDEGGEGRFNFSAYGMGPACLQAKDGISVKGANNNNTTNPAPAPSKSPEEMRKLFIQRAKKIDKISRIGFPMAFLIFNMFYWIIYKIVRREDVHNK
Briefly: Whole-cell patch-clamp, Cl- current activated via α1 homomeric glycine receptors in transfected HEK 293 cells. The class given is cell-based. The protocol:
Cells were cultured in Dulbecco's modified Eagle's medium (DMEM, Biochrom, Berlin, Germany), supplemented with 10% fetal calf serum (FCS, Biochrom, Berlin, Germany), 100 U ml^−1 penicillin and 100 μg ml^−1 streptomycin at 37° C. in a 5% CO2/air incubator. […] For co-transfection of rat α1 glycine receptor subunits, the corresponding cDNA, each subcloned in the pCIS2 expression vector (Invitrogen, San Diego, USA), was added to the suspension. To visualize transfected cells, they were co-transfected with cDNA of green fluorescent protein (GFP 10 μg ml^−1). For transfection, we used an electroporation device by EquiBio (Kent, UK).
The compounds according to the present invention under investigation were prepared as 1 M stock solution in ethanol, light-protected and stored in glass vessels at −20° C. Concentrations were calculated from the amount injected into the glass vials. Drug-containing vials were vigorously vortexed for 60 min. Glycine and picrotoxin were dissolved directly in bath solution.
Patch electrodes contained [mM] KCl 140, MgCl2 2, EGTA 11, HEPES 10, glucose 10; the bath solution contained [mM]
A tight electrical seal of several GΩ formed between the cell membrane and a patch-clamp electrode allows inward currents due to agonist-induced channel activation to resolve in the pA range. Electrical resistance of the pipettes was around 5 MΩ, corresponding to a total access resistance in the whole-cell configuration of about 10 MΩ. The compounds according to the present invention under investigation were applied to the cells via a smooth liquid filament achieved with a single outflow (glass tubing 0.15 mm inner diameter) connected to a piezo crystal. The cells were placed at the interface between this filament and the continuously flowing background solution. When a voltage pulse was applied to the piezo, the tube was moved up and down onto or away from the cell under investigation. Correct positioning of the cell in respect to the liquid filament was ensured applying a saturating (1000 μM) glycine pulse before and after each test experiment. Care was taken to ensure that the amplitude and the shape of the glycine-activated current had stabilized before proceeding with the experiment. Test solution and glycine (1000 μM) were applied via the same glass-polytetrafluoroethylen perfusion system, but from separate reservoirs. The contents of these reservoirs were mixed at a junction immediately before entering the superfusion chamber.
The compounds under test were applied alone in order to determine their direct agonistic effects. A new cell was used for each compound and each protocol, at least three different experiments were performed for each setting. The amount of the diluent ethanol corresponding to the highest compound concentration used was 34 000 μM.
For data acquisition and further analysis the inventors used the Axopatch 200B amplifier in combination with pClamp6 software (Axon Instruments, Union City, Calif., USA). Currents were filtered at 2 kHz. Fitting procedures were performed using a non-linear least-squares Marquardt-Levenberg algorithm. Details are provided in the appropriate figure legends or in the results section.
Activated currents were normalized to their own maximum response. The dose-response-curves were fitted according to (Inorm=[1+(EC50/[C])^nH]^−1), where Inorm is the current induced directly by the respective concentration [C] of the compound, normalized to the maximum inward current.

[1] abbreviates: EC50 (nM), α1 homomer, initial tests, Hill fit to normalised response, rat α1 receptors in HEK 293.
The mark [2] stands for this setting: initial tests, Hill fit to normalised response.

The EC50 is the concentration at which the effect is half-maximal. On to `CC(C)c1cc(-c2ccc(-c3ccccc3)cc2)cc(C(C)C)c1O` [4-(p-biphenyl)-propofol], for which the EC50 under setting [1] worked out at 0.8 ± 0.2 nM. Also, the “nH (Hill coefficient), α1 homomer” value under setting [2] was determined as 2.6 ± 1.2.
As to `CC(C)c1cc(-c2ccc(C(C)(C)C)cc2)cc(C(C)C)c1O` [4-(p-tert-butylphenyl)-propofol], under setting [1], the half-maximal effective concentration (EC50) was determined as 0.05 ± 0.03 nM. Also, the “nH (Hill coefficient), α1 homomer” value under setting [2] amounted to 2.0 ± 0.4.
Take `CC(C)c1cc(NC(=O)C(F)(F)F)cc(C(C)C)c1O` [4-trifluoroacetamide-propofol, 4-Trifluoroacetamide-propofol]: the EC50 turned out to be 0.3 nM under setting [1] and 0.11 nM (EC50, further series of tests (later tests)).
